The results in this text go back to ChEMBL document CHEMBL5653631, “A Potent and Selective ULK1 Inhibitor Suppresses Autophagy and Sensitizes Cancer Cells to Nutrient Stress” (iScience, 2018).

Assay [1] addresses T1, Eukaryotic elongation factor 2 kinase (Homo sapiens) (UniProt O00418).
T1 sequence (whole entry): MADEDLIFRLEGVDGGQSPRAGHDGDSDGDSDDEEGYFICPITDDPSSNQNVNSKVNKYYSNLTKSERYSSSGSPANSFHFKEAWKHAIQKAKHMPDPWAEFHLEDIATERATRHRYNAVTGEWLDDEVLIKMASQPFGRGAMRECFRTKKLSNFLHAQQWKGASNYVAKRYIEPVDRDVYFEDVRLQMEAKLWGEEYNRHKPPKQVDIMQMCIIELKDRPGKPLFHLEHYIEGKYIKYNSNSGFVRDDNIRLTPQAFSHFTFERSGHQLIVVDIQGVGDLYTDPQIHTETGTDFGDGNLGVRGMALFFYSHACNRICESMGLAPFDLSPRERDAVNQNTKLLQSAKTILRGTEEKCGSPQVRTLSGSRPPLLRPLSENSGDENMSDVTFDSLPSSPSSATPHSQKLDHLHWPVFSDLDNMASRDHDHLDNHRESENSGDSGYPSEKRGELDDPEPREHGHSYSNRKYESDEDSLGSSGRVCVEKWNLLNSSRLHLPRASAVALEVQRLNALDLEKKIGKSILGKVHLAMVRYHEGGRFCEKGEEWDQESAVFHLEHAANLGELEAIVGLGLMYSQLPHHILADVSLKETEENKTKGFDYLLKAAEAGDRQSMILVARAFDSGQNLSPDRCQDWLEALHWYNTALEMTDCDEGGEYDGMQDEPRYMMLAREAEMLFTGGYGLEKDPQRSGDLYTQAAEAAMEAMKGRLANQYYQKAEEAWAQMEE
As to the kind of experiment: Inhibition of human recombinant eEF2K at 40 nM in presence of ATP by radiometric assay relative to control.

Assay [2] has as its target Tyrosine-protein kinase Fyn (Homo sapiens) (UniProt P06241). As to the kind of experiment: Inhibition of human recombinant FYN at 40 nM related to control ULK1.
The target in assay [3] is Casein kinase I isoform gamma-2 (Homo sapiens) (UniProt P78368). As to the kind of experiment: Inhibition of human recombinant CK1g2 at 500 nM in presence of ATP by radiometric assay relative to control.
Chain of Casein kinase I isoform gamma-2 (Homo sapiens) (P78368 whole entry, looked up, canonical isoform): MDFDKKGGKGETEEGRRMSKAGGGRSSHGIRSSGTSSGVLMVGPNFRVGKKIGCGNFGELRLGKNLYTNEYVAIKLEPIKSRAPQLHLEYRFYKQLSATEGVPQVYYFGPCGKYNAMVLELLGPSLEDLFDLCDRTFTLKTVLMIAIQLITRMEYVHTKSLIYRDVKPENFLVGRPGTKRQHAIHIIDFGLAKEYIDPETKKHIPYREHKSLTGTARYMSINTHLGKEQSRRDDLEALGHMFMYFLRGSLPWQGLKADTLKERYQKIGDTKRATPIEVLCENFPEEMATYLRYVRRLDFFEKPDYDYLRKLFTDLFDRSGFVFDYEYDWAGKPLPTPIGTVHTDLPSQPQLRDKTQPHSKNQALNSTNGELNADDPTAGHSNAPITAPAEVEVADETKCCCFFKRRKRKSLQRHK
In assay [4] the target is Tyrosine-protein kinase Yes (Homo sapiens) (UniProt P07947). As to the kind of experiment: Inhibition of human recombinant YES at 500 nM in presence of ATP by radiometric assay relative to control.
Chain of Tyrosine-protein kinase Yes (Homo sapiens) (P07947 2-543 limits assumed): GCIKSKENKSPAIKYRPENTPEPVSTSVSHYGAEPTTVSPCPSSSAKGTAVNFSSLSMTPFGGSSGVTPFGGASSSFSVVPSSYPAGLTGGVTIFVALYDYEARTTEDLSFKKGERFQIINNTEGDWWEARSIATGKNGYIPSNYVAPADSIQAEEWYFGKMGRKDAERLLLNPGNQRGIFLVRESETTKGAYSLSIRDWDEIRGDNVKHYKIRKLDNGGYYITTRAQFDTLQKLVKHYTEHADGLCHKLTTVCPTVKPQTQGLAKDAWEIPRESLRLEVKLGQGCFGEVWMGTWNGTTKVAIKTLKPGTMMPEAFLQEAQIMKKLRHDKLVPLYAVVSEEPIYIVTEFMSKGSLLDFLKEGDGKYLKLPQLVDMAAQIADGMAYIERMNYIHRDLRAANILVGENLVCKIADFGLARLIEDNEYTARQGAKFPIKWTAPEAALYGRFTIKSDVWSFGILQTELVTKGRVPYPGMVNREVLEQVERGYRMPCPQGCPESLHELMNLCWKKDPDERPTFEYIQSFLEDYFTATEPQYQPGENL
Assay [5] has as its target Dual specificity protein kinase CLK1 (Homo sapiens) (UniProt P49759). As to the kind of experiment: Inhibition of human recombinant CLK1 at 500 nM related to control ULK1.
Assay [6] deals with ALK tyrosine kinase receptor (Homo sapiens) (UniProt Q9UM73). As to the kind of experiment: Inhibition of human recombinant ALK at 15 nM related to control ULK1.
Chain of ALK tyrosine kinase receptor (Homo sapiens) (Q9UM73 19-1620 limits assumed): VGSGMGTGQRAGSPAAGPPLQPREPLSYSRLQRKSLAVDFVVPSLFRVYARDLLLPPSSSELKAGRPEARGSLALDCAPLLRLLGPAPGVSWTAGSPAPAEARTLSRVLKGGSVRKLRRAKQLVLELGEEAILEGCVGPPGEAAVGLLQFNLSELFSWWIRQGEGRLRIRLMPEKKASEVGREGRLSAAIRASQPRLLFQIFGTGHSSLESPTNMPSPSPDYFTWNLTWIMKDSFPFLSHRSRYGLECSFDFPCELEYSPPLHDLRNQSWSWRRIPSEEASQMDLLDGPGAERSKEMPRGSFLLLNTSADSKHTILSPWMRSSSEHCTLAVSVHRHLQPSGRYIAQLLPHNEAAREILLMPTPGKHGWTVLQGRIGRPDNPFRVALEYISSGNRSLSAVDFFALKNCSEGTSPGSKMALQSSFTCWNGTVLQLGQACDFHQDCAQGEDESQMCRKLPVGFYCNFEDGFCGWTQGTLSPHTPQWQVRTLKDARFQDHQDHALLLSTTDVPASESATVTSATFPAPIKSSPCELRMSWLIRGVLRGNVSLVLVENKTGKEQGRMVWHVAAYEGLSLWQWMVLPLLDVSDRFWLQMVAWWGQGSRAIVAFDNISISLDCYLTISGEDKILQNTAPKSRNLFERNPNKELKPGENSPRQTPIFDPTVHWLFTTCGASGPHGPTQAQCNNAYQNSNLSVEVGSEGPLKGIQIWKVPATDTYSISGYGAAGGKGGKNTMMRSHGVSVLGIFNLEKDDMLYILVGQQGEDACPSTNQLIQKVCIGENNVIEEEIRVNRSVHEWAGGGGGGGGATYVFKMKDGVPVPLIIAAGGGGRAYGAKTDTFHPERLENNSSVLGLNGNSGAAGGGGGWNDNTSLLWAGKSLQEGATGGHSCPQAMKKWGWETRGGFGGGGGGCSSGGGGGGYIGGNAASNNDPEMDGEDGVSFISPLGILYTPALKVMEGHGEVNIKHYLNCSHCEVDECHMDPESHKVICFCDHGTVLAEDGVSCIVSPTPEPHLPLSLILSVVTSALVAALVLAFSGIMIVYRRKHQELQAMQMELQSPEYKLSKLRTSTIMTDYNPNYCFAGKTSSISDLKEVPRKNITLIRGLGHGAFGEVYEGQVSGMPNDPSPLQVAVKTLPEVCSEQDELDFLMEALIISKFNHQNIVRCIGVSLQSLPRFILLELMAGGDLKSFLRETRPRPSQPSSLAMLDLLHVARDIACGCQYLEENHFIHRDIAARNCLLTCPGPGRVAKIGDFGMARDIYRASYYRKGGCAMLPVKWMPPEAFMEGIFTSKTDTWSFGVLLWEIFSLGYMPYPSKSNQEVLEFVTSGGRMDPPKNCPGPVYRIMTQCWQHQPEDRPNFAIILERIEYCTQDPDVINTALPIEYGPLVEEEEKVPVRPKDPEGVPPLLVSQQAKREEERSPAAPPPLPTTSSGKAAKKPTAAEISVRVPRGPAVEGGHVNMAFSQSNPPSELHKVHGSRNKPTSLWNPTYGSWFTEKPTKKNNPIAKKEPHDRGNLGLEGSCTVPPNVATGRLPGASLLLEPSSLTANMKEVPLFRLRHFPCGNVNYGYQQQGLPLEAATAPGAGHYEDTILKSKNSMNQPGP
In assay [7] the target is Calcium/calmodulin-dependent protein kinase type II subunit alpha (Homo sapiens) (UniProt Q9UQM7). As to the kind of experiment: Inhibition of human recombinant CaMK2a at 15 nM related to control ULK1.
Chain of Calcium/calmodulin-dependent protein kinase type II subunit alpha (Homo sapiens) (Q9UQM7 whole entry): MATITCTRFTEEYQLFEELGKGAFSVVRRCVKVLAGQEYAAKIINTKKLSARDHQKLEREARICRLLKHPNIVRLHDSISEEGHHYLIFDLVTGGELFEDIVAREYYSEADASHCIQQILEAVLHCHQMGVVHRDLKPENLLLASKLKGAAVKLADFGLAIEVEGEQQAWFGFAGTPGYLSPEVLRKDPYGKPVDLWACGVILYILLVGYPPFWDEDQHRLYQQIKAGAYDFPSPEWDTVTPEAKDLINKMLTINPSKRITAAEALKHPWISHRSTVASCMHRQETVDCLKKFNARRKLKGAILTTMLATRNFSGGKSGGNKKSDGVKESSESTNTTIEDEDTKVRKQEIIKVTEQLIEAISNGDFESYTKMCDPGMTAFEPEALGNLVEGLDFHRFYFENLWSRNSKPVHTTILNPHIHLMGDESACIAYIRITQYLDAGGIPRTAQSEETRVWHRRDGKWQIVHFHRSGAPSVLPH
Assay [8] deals with Cyclin-dependent kinase 5 (Homo sapiens) (UniProt Q00535). As to the kind of experiment: Inhibition of human recombinant CDK5 at 15 nM related to control ULK1.
Chain of Cyclin-dependent kinase 5 (Homo sapiens) (Q00535 whole entry, looked up): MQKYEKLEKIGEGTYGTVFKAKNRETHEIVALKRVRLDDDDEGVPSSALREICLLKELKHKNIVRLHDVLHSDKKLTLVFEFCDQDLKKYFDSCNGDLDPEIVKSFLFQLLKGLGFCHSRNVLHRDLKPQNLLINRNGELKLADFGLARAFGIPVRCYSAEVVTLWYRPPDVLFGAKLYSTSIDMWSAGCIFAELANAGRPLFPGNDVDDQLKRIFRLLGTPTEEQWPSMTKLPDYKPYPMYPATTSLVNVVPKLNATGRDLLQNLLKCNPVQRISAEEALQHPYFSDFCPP
The target in assay [9] is T2, NUAK family SNF1-like kinase 1 (Homo sapiens) (UniProt O60285).
T2 sequence (whole entry): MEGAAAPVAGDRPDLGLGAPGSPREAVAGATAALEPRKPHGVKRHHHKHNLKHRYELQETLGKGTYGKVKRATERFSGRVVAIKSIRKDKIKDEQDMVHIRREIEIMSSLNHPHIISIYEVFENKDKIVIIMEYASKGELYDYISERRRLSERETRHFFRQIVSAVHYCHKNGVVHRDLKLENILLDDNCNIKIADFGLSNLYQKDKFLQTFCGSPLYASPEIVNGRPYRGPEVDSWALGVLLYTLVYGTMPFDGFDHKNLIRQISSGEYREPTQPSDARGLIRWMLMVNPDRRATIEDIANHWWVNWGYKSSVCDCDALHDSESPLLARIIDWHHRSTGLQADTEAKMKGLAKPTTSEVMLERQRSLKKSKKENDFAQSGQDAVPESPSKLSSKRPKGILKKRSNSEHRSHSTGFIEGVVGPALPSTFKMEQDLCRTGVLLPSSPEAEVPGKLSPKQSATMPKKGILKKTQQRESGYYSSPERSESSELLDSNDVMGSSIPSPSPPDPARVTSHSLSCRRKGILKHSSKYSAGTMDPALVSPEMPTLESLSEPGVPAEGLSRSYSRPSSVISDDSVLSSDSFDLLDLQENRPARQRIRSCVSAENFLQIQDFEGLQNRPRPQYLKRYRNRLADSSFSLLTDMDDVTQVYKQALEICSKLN
As to the kind of experiment: Inhibition of human recombinant NuaK1 at 15 nM related to control ULK1.

The target of assay [10] is T3, cGMP-dependent protein kinase 1 (Homo sapiens) (UniProt Q13976).
T3 sequence (whole entry): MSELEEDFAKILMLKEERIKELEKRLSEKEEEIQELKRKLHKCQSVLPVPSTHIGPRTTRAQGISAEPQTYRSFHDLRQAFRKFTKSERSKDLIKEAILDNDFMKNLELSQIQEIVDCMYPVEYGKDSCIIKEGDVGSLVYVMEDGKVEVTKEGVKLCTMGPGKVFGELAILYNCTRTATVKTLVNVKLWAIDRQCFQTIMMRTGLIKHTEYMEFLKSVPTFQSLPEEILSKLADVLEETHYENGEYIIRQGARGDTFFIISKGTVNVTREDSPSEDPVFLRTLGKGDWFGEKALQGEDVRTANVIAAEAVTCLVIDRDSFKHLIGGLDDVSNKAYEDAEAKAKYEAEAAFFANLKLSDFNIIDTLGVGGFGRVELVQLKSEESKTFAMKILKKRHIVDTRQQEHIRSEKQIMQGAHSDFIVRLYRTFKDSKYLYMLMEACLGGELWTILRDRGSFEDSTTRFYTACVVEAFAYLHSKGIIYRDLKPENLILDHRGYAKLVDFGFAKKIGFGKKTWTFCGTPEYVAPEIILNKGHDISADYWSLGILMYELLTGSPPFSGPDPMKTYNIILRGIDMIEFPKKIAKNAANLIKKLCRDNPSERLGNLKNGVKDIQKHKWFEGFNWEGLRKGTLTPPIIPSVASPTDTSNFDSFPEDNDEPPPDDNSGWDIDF
As to the kind of experiment: Inhibition of human recombinant PKG1 at 15 nM related to control ULK1.

In assay [11] the target is Serine/threonine-protein kinase PAK 1 (Homo sapiens) (UniProt Q13153). As to the kind of experiment: Inhibition of human recombinant PAK1 at 15 nM in presence of ATP by radiometric assay relative to control.
Chain of Serine/threonine-protein kinase PAK 1 (Homo sapiens) (Q13153 whole entry, looked up): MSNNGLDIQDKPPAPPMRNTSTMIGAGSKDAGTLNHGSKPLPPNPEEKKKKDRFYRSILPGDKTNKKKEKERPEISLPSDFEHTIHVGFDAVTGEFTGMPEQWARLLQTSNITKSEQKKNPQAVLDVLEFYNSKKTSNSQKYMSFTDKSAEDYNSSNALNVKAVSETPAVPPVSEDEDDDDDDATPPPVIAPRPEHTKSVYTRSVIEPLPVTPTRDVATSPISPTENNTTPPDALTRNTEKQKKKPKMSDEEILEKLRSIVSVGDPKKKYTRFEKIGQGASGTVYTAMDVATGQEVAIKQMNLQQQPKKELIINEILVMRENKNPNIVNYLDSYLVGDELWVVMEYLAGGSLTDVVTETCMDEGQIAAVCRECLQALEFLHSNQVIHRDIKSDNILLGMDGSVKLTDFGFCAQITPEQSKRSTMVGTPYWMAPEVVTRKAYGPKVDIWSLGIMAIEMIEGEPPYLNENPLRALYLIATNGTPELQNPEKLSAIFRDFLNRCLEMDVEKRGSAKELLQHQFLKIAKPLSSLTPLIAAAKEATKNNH

Chain of Dual specificity protein kinase CLK1 (Homo sapiens) (P49759 whole entry, looked up): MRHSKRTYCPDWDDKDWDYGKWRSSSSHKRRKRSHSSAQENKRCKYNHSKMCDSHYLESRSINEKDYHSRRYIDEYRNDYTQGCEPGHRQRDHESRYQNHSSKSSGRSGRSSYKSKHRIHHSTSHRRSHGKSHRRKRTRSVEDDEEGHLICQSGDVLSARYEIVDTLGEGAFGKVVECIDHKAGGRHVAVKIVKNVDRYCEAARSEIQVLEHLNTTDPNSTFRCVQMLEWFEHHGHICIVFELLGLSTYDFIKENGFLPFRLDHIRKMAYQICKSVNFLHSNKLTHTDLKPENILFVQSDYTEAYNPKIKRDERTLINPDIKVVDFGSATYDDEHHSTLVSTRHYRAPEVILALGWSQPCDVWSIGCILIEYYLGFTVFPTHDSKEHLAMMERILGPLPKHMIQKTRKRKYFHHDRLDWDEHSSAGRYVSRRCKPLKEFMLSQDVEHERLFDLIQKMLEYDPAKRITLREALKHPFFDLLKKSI
Chain of Tyrosine-protein kinase Fyn (Homo sapiens) (P06241 2-537 limits assumed): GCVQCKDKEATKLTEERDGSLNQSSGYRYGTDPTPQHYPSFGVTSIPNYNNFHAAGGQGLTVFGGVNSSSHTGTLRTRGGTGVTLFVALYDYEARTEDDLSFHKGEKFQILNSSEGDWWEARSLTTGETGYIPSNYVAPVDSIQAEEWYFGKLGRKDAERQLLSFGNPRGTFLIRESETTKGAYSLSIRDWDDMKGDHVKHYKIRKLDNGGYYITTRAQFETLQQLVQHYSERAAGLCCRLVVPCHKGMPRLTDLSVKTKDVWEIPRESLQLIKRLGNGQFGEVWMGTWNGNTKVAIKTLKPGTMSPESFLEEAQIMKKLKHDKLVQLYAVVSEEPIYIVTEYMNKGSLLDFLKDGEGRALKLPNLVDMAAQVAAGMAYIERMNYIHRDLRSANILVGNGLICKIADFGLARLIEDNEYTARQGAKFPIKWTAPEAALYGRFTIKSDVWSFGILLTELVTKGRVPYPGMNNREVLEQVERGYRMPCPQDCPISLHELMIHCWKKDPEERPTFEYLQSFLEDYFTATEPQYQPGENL

As for `O=C(N[C@@H](C1CC1)C(F)(F)F)c1cc(-c2cnn3cc(-c4ccc(F)cc4)cnc23)cs1`, in assay [1], the inhibition (as a rule, how much of the control response was suppressed) was found to be 7%. Besides, the fold change (FC) in [2] amounted to 0.

With `CNC(=O)c1ccccc1Oc1nc(Nc2cc(OC)c(OC)c(OC)c2)ncc1Br`, the inhibition is 0% in [3] and 66% in assay [4]. Besides, the fold change (FC) in assay [5] was 0.07.

As to `CC(C)[C@H](NC(=O)c1cc(-c2cnn3cc(-c4ccc(OCCN5CCCCC5)cc4)cnc23)cs1)C(F)(F)F`, the fold change (FC) in assay [6] was determined as 0; in assay [7], 0.47; in [8], 0.26; in assay [9] it was 0.31; in assay [10] it was 0. For the same compound, the inhibition in [11] was 0%.
